Publication PMC9864330, “Two New Alkaloids and a New Butenolide Derivative from the Beibu Gulf Sponge-Derived Fungus Penicillium sp. SCSIO 41413” (Marine Drugs, 2022)

Target: PI3K (phosphatidylinositol 3-kinase)
Assay: PI3K enzyme activity assay, dose response […]
Type: biochemical

| IC50 | SMILES |
| --- | --- |
| 9.8 µM | O=C1OC(O)C(Cc2ccc(O)cc2)=C1c1ccc(O)c(O)c1 (racemic) [compound 12, 8-hydroxyhelvafuranone] |
| 1.7 µM | O=C1OCC(Cc2ccc(O)c(O)c2)=C1c1ccc(O)c(O)c1 [compound 11, eutypoid F] |
